Assay results: ChEMBL document CHEMBL5715954, “Silencing c-Myc translation as a therapeutic strategy through targeting PI3Kδ and CK1ε in hematological malignancies” (Blood, 2017)

Experiments:
Design in all cases: scale not given: the % may be the effect or the level left
[1] = biological target: T1, Aurora kinase A (Homo sapiens) (UniProt O14965); test: Inhibition of human Aurora A assessed as enzyme activity at 1 uM using H-LRRASLG as substrate preincubated for 20 mins followed by [gamma-33P]-ATP addition and measured after 120 mins by radiometric Hot-SpotSM Kinase assay relative to control
T1 sequence (whole entry): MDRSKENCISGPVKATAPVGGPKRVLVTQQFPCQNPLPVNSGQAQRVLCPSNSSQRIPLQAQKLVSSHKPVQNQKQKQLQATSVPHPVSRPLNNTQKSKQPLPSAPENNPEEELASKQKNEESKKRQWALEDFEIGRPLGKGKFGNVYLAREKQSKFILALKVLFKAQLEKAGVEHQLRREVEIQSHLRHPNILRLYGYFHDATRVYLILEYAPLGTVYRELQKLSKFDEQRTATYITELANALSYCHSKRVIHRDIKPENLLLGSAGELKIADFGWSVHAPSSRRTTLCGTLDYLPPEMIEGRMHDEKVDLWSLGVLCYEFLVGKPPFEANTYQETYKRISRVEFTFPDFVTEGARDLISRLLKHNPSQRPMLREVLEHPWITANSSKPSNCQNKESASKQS

[2] = biological target: CDK3/Cyclin E (Homo sapiens) (UniProt P24864+Q00526); test: Inhibition of human CDK3/cyclin E assessed as enzyme activity at 1 uM using RB Protein as substrate preincubated for 20 mins followed by [gamma-33P]-ATP addition and measured after 120 mins by radiometric Hot-SpotSM Kinase assay relative to control; format: protein-complex assay
CDK3/Cyclin E (Homo sapiens), sequence (P24864 whole entry, looked up): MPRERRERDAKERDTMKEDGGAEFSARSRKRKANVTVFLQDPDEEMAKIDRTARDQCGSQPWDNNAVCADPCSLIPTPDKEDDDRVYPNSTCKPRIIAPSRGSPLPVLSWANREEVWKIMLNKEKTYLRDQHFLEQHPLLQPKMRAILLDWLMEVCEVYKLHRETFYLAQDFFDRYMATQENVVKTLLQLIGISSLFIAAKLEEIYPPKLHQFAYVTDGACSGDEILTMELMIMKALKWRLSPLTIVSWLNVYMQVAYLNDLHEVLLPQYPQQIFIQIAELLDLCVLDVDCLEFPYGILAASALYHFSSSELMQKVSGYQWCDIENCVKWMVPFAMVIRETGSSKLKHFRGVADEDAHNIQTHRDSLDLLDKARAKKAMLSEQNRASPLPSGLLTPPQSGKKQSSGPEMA
CDK3/Cyclin E (Homo sapiens), sequence (Q00526 whole entry, looked up): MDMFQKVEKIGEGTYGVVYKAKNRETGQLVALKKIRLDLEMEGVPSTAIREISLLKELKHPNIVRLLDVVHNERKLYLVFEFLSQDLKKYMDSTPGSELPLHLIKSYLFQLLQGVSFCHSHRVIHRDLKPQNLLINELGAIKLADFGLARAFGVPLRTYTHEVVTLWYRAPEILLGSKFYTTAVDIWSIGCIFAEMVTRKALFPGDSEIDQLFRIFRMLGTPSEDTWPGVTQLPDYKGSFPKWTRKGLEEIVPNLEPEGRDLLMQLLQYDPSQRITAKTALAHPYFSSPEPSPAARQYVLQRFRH

[3] = biological target: Glycogen synthase kinase-3 alpha (Homo sapiens) (UniProt P49840); test: Inhibition of human GSK3a assessed as enzyme activity at 1 uM using YRRAAVPPSPSLSRHSSPHQ(pS)EDEEE as substrate preincubated for 20 mins followed by [gamma-33P]-ATP addition and measured after 120 mins by radiometric Hot-SpotSM Kinase assay relative to control
Glycogen synthase kinase-3 alpha (Homo sapiens), sequence (P49840 2-483 limits assumed): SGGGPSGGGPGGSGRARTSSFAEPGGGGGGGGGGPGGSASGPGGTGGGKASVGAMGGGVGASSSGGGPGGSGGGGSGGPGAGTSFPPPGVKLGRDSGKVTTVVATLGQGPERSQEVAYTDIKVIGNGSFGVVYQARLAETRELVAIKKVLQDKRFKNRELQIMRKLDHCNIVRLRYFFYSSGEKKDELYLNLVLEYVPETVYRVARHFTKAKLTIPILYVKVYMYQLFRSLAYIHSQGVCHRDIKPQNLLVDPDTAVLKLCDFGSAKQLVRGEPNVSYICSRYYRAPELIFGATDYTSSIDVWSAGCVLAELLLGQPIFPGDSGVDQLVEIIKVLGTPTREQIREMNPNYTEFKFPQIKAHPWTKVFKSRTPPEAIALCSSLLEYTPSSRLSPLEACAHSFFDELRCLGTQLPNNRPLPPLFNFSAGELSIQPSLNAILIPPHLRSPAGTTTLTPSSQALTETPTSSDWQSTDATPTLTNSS

[4] = biological target: T2, Serine/threonine-protein kinase MAK (Homo sapiens) (UniProt P20794); test: Inhibition of human MAK assessed as enzyme activity at 1 uM using myelin basic protein as substrate preincubated for 20 mins followed by [gamma-33P]-ATP addition and measured after 120 mins by radiometric Hot-SpotSM Kinase assay relative to control
T2 sequence (whole entry): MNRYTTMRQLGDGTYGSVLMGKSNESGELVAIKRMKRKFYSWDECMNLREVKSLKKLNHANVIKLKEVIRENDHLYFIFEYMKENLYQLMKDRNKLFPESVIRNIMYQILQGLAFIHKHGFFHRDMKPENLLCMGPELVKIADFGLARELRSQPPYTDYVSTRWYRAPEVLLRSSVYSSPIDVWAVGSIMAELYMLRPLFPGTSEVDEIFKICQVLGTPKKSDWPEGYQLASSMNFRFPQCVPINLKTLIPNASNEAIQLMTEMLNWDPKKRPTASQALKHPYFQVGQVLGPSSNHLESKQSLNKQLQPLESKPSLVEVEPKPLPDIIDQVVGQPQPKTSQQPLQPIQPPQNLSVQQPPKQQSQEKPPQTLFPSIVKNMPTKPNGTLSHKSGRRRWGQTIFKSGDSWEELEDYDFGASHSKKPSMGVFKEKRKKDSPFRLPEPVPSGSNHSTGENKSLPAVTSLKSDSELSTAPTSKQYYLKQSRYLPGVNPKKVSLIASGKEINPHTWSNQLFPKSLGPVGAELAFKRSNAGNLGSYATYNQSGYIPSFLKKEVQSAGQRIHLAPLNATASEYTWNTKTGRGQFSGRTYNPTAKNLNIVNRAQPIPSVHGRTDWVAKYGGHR

[5] = biological target: Protein kinase C theta type (Homo sapiens) (UniProt Q04759); test: Inhibition of human PKCtheta assessed as enzyme activity at 1 uM using ERMRPRKRQGSVRRRV as substrate preincubated for 20 mins followed by [gamma-33P]-ATP addition and measured after 120 mins by radiometric Hot-SpotSM Kinase assay relative to control
Protein kinase C theta type (Homo sapiens), sequence (Q04759 whole entry, looked up): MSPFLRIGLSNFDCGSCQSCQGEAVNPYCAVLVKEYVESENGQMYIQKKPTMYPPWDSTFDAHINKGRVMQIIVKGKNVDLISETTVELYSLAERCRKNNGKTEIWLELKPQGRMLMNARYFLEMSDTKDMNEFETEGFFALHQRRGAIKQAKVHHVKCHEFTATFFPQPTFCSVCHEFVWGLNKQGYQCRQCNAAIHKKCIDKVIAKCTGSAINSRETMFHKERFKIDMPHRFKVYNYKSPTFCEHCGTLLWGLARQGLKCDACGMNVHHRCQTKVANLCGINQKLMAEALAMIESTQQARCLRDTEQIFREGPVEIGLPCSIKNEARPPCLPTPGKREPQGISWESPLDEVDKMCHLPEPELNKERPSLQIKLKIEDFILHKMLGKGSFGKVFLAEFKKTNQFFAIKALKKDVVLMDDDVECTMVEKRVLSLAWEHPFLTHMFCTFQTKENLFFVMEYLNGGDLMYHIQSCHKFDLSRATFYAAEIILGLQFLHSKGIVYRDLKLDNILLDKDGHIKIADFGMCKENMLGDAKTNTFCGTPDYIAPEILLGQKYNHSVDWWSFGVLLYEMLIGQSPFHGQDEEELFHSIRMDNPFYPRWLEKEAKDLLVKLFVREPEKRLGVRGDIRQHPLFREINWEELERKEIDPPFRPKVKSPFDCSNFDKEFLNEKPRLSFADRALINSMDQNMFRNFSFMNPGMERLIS

[6] = biological target: Tyrosine-protein kinase Srms (Homo sapiens) (UniProt Q9H3Y6); test: Inhibition of human SRMS assessed as enzyme activity at 1 uM using poly[Glu:Tyr] (4:1) as substrate preincubated for 20 mins followed by [gamma-33P]-ATP addition and measured after 120 mins by radiometric Hot-SpotSM Kinase assay relative to control
Tyrosine-protein kinase Srms (Homo sapiens), sequence (Q9H3Y6 whole entry): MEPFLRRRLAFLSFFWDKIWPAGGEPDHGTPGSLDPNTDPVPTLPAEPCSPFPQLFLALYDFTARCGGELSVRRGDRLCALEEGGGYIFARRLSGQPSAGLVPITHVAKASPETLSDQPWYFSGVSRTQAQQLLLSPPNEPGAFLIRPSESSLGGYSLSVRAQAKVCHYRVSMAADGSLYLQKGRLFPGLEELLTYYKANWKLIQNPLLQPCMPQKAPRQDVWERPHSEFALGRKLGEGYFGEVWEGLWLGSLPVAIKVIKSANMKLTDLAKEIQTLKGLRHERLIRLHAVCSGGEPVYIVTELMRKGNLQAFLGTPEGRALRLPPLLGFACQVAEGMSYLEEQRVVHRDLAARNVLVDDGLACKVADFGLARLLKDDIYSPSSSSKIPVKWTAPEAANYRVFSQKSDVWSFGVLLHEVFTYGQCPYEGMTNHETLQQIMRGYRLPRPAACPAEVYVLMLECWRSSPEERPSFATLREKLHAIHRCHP

SMILES | Activity [1] | Activity [2] | Activity [3] | Activity [4] | Activity [5] | Activity [6]
CC[C@H](Nc1ncnc2[nH]cnc12)c1nc2cccc(F)c2c(=O)n1-c1ccccc1 | 104% | 86.8% | 93.7% | 92.5% | 109% | 102%
C[C@H](Nc1ncnc2nc[nH]c12)c1cc2cccc(Cl)c2c(=O)n1-c1ccccc1 | 96.8% | 88% | 95.3% | 98.5% | 112% | 100%
CC(C)Oc1ccc(-c2nn([C@@H](C)c3oc4ccc(F)cc4c(=O)c3-c3cccc(F)c3)c3ncnc(N)c23)cc1F [UMBRALISIB] | 99.5% | 84.3% | 104% | 96.5% | 106% | 105%
